Assay: Moisture sorption isotherms
Assay type: physicochemical
Conditions: moisture sorption at 25° C., 4 to 95% RH (FIG. 4)
Procedure: Moisture sorption isotherms were collected in a TA Instrument VTI-SA+ Vapor Sorption Analyzer using approximately 270 mg of sample in a 250 μL ceramic pan. The sample was dried at 30° C. until the loss rate of 0.005 wt %/min was obtained for 10 minutes. The sample was tested at 25° C. and 4, 5, 15, 25, 35, 45, 50, 65, 75, 85, and 95% RH. Equilibration at each RH was reached when the rate of 0.01 wt %/min for 35 minutes was achieved or a maximum of 600 minutes.

In the case of `CCCN(C)C(=O)OCc1c(-c2ccc(O[C@H]3CCC[C@H](C(=O)O)C3)c(C)n2)nnn1C` [Form A], the hygroscopicity is reported as “non-hygroscopicity”.
